Biological target: HIF-1α (Homo sapiens, UniProt Q16665)
Assay: HIF-1α ubiquitination, IP/IB with MG132 in A549 cells
Type: cell-based
Conditions: hypoxia 16 h, then MG132 20 μM 4 h, compared to normoxic control cells
Procedure: Figure 4 Compound 12 increased hydroxylation and proteasome-mediated degradation of HIF-1α (A) A549 cells were treated with Compound 12 (at concentrations of 0 nM, 1 nM, 10 nM, and 100 nM) for 16 h. Cells were fixed with paraformaldehyde; an immunofluorescence assay was then performed using anti-HIF-1α antibodies and Alexa Fluor 488-labeled secondary antibodies (green). Nuclei were stained with DAPI. N, normoxia; H, hypoxia. (B) A549 cells were treated with Compound 12 (10 nM concentration) and exposed to hypoxic conditions for 16 h. Cells were immediately treated with cycloheximide (CHX, 100 μg/mL) for the time indicated, and HIF-1α protein levels were determined by western blotting. β-actin was used as an internal control. Half-life (t1/2) of HIF-1α protein was determined using relative expression levels of HIF-1α. (C) A549 cells were treated with Compound 12 (at concentrations of 0 nM, 1 nM, 10 nM, and 100 nM) for 16 h. The expression levels of HIF-1α, hydroxylated (OH)-HIF-1α at P402 or P564, and PHD2 were determined via western blotting using specific antibodies. N, normoxia; H, hypoxia. (D) A549 cells were transfected with two kinds of small interfering RNAs targeting PHD2 and then treated with Compound 12 under hypoxic exposure for 16 h. Cell lysates were immunoblotted with an anti-HIF-1α and PHD2 antibody. […] Relative levels of ubiquitinated HIF-1α were quantified and graphed. […]

Chain of HIF-1α (Q16665 whole entry): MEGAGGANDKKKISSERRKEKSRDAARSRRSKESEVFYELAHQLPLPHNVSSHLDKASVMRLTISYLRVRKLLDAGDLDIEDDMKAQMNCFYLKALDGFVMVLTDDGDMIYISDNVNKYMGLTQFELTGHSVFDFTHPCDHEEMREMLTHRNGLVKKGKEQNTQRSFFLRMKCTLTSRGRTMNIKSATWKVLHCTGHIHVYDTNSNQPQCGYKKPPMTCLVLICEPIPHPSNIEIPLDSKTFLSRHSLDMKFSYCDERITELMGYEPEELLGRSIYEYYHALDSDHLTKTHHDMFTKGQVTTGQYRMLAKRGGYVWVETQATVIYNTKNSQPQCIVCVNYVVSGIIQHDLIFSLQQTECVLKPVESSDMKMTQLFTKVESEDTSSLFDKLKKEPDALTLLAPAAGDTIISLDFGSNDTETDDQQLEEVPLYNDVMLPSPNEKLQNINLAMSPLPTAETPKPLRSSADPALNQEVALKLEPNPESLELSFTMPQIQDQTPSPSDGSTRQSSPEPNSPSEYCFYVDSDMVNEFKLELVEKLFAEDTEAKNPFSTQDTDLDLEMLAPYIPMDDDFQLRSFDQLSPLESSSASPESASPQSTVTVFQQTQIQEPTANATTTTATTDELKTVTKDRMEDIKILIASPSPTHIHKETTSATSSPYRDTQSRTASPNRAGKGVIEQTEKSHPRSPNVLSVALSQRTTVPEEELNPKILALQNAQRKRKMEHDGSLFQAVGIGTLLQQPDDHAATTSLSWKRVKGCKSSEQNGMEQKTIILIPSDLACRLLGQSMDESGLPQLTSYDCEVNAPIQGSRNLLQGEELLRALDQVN

## COc1ccc(-c2cn(CC3(C)C=Cc4cc([N+](=O)[O-])ccc4O3)nn2)cc1 (stereo not shown) [Compound 12, 4-(4-methoxyphenyl)-1-((2-methyl-6-nitro-2H-chromen-2-yl)methyl)-1H-1,2,3-triazole]
  ubiquitination of HIF-1α: significantly increased
